Laboratory results: US20230416765A1, “AGROBACTERIUM RHIZOGENES AND METHODS OF TRANSFORMING CELLS” (priority 2020, published 2023)

System: MSU440
Assay: Antibiotic susceptibility test on MSU440
Format: cell-based, Agrobacterium rhizogenes
Source text: The development of a disarmed strain of MSU440 relied on a selectable marker (an antibiotic resistance gene or the counter-selectable marker sacB). Antibiotic susceptibility test on MSU440 were formed with the antibiotics outlined in Table 5.

[1] = MSU440 response to antibiotic at 50 ug/mL

## CC1(C)S[C@@H]2[C@H](NC(=O)C(C(=O)O)c3ccccc3)C(=O)N2[C@H]1C(=O)O (some centres unmarked) [carbenicillin]
MSU440 response to antibiotic at 100 ug/mL
  Resistant or susceptible: susceptible

## O=C(N[C@H](CO)[C@H](O)c1ccc([N+](=O)[O-])cc1)C(Cl)Cl [chloramphenicol]
MSU440 response to antibiotic at 30 ug/mL
  Resistant or susceptible: resistant

## CN[C@@H]1[C@H](O)[C@H](NC)[C@H]2O[C@@]3(O)C(=O)C[C@@H](C)O[C@H]3O[C@@H]2[C@H]1O [spectinomycin]
[1]
  Resistant or susceptible: resistant

## [H]/N=C(/N)N[C@H]1[C@H](O)[C@@H](O)[C@H](O[C@@H]2O[C@@H](C)[C@](O)(C=O)[C@H]2O[C@@H]2O[C@@H](CO)[C@H](O)[C@@H](O)[C@@H]2NC)[C@@H](N/C(N)=N\[H])[C@@H]1O [streptomycin]
[1]
  Resistant or susceptible: resistant

## gentamicin
MSU440 response to antibiotic at 35 ug/mL
  Resistant or susceptible: susceptible
